Results published in publication PMC10382584, “Macrocyclization of linear molecules by deep learning to facilitate macrocyclic drug candidates discovery” (Nature Communications, 2023).

Tests used:
Test in all cases: biochemical
Parameters in all cases: DiscoveRx KINOMEscan competition binding, percent of DMSO control signal at 100 nM
Details in all cases: read-out: Fig. 4a / Percent Control / Compound 1; percent of DMSO control, competition binding
PIM1 = PIM1 (Homo sapiens, UniProt P11309)
MINK = target: T1, MINK (Homo sapiens, UniProt Q8N4C8)
T1 construct: gene MINK1

SGK2 = SGK2 (Homo sapiens, UniProt Q9HBY8)
FGFR2 = FGFR2 (Homo sapiens, UniProt P21802)
Sequence of FGFR2 (P21802 whole entry): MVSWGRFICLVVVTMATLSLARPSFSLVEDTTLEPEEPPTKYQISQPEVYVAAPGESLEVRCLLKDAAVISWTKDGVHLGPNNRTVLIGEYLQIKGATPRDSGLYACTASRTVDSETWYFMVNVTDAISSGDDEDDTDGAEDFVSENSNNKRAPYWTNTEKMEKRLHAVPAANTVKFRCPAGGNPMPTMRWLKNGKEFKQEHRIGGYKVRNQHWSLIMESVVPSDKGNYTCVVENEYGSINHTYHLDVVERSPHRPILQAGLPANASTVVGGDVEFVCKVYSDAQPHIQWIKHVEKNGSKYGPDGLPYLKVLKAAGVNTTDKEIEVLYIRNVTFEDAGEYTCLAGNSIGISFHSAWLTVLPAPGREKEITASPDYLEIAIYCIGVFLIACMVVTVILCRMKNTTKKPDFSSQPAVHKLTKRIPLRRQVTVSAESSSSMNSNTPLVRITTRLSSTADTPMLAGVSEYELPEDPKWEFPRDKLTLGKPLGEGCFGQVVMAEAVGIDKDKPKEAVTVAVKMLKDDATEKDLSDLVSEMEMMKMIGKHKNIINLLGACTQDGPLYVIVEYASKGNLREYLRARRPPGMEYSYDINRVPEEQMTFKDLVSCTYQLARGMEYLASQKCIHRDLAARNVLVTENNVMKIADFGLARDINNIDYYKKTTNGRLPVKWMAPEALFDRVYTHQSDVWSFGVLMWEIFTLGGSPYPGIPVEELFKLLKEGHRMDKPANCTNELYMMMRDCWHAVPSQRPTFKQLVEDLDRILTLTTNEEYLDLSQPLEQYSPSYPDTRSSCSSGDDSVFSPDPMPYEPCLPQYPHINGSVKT

ULK2 = ULK2 (Homo sapiens, UniProt Q8IYT8)
RIPK5 = target: T2, RIPK5 (Homo sapiens, UniProt Q6XUX3)
T2 construct: gene DSTYK

EGFR = EGFR (Homo sapiens, UniProt P00533)
RAF1 = RAF1 (Homo sapiens, UniProt P04049)
Sequence of RAF1 (P04049 whole entry): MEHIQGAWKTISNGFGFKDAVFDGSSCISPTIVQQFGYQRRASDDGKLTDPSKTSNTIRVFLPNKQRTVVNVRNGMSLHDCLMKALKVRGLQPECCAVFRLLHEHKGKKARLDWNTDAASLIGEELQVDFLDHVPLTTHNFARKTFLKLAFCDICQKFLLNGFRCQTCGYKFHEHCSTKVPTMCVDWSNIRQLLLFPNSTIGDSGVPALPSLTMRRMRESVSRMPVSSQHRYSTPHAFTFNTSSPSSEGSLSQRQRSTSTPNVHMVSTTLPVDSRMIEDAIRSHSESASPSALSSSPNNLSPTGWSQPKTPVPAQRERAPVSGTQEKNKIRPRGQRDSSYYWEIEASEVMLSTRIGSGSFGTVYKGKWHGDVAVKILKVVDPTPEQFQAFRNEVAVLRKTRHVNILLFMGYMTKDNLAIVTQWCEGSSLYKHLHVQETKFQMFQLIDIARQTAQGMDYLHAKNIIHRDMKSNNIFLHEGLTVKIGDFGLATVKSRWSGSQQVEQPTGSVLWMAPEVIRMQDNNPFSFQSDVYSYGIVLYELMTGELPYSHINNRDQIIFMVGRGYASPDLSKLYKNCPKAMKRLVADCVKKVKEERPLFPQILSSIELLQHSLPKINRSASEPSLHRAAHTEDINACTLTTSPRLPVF

PRKD3 = PRKD3 (Homo sapiens, UniProt O94806)
PRKCH = PRKCH (Homo sapiens, UniProt P24723)
EPHA1 = EPHA1 (Homo sapiens, UniProt P21709)
Sequence of EPHA1 (P21709 whole entry): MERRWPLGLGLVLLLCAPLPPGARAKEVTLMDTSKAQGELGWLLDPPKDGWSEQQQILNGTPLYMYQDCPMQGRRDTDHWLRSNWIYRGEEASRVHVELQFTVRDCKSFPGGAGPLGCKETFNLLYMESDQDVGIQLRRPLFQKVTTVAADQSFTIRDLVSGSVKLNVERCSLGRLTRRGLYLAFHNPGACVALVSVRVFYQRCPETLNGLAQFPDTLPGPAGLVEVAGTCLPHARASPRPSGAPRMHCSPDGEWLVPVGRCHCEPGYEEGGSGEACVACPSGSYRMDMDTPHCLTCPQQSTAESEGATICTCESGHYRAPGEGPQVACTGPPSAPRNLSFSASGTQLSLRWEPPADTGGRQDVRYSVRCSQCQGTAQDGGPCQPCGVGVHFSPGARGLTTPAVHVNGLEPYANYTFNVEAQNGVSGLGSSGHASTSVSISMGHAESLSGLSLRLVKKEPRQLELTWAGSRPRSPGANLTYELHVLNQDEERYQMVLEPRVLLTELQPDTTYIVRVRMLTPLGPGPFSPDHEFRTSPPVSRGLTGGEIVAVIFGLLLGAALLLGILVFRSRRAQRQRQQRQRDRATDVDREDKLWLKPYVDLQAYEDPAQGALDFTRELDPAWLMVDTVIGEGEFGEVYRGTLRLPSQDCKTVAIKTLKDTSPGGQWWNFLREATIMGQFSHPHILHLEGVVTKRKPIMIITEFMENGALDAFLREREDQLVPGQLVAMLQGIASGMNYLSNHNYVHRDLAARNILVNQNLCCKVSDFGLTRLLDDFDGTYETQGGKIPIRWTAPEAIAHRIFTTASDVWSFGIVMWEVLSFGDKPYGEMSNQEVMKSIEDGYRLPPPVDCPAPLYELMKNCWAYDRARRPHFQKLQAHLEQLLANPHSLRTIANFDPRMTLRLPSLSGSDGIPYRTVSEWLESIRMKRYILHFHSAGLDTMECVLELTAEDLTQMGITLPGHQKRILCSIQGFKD

MYO3A = MYO3A (Homo sapiens, UniProt Q8NEV4)
MRCKA = target: T3, MRCKA (Homo sapiens, UniProt Q5VT25)
T3 construct: gene CDC42BPA

MLK2 = target: T4, MLK2 (Homo sapiens, UniProt Q02779)
T4 construct: gene MAP3K10

ARK5 = target: T5, ARK5 (Homo sapiens, UniProt O60285)
T5 construct: gene NUAK1
T5 sequence (O60285 whole entry): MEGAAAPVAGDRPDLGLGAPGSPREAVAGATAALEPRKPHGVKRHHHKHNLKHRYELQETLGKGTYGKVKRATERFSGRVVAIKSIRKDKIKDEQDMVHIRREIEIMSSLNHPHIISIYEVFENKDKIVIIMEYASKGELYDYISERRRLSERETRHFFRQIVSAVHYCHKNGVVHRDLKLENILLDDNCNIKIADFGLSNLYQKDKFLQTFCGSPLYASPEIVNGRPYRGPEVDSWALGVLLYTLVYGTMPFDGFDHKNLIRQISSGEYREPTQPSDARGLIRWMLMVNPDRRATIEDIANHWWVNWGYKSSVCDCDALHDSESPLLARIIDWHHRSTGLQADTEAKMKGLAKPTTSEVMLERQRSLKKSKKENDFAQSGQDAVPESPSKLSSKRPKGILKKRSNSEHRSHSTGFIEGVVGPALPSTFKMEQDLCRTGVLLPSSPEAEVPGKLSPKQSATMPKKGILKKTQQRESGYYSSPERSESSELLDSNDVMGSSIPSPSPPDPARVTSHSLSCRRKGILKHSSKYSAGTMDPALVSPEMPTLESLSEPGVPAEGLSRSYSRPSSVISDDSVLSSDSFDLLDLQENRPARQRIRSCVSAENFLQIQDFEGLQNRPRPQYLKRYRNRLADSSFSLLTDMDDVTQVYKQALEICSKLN

MAPKAPK5 = MAPKAPK5 (Homo sapiens, UniProt Q8IW41)
YANK2 = target: T6, YANK2 (Homo sapiens, UniProt Q9NY57)
T6 construct: gene STK32B

MEK2 = target: T7, MEK2 (Homo sapiens, UniProt P36507)
T7 construct: gene MAP2K2

NDR2 = target: T8, NDR2 (Homo sapiens, UniProt Q9Y2H1)
T8 construct: gene STK38L
T8 sequence (Q9Y2H1 whole entry): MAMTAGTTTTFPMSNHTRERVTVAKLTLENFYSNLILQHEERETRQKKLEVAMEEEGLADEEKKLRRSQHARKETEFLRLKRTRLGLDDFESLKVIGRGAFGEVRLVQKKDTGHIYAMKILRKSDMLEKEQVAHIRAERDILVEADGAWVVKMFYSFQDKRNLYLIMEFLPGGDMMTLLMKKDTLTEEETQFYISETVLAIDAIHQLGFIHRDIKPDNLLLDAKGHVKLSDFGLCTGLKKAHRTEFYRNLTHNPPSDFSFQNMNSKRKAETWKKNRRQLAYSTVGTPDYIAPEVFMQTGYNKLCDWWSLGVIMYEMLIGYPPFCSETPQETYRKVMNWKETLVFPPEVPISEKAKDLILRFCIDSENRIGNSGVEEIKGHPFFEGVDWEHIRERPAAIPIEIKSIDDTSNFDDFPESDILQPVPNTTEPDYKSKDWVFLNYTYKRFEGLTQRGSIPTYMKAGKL

CAMKK2 = CAMKK2 (Homo sapiens, UniProt Q96RR4)
CDKL3 = CDKL3 (Homo sapiens, UniProt Q8IVW4)
DCAMKL2 = target: T9, DCAMKL2 (Homo sapiens, UniProt Q8N568)
T9 construct: gene DCLK2
T9 sequence (Q8N568 whole entry): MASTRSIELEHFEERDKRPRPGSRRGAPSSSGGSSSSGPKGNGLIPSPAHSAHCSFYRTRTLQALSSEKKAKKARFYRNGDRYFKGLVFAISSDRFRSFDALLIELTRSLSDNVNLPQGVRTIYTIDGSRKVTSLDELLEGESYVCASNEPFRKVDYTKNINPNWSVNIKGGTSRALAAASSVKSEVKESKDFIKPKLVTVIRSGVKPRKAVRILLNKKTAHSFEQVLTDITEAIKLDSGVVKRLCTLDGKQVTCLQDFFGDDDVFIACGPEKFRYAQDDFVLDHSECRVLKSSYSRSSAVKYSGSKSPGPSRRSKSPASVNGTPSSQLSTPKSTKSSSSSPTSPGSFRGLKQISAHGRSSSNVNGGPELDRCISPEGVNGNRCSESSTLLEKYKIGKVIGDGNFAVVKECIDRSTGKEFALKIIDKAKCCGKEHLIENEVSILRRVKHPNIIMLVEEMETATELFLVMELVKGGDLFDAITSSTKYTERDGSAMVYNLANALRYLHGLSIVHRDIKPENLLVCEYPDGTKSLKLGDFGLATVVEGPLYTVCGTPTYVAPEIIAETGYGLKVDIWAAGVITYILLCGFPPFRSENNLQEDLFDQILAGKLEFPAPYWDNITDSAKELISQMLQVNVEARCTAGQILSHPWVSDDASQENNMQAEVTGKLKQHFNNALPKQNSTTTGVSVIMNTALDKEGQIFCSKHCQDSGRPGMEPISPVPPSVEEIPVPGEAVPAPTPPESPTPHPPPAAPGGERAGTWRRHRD

TNIK = TNIK (Homo sapiens, UniProt Q9UKE5)
YES = target: T10, YES (Homo sapiens, UniProt P07947)
T10 construct: gene YES1

CDK11 = target: T11, CDK11 (Homo sapiens, UniProt Q9BWU1)
T11 construct: gene CDK19
T11 sequence (Q9BWU1 whole entry): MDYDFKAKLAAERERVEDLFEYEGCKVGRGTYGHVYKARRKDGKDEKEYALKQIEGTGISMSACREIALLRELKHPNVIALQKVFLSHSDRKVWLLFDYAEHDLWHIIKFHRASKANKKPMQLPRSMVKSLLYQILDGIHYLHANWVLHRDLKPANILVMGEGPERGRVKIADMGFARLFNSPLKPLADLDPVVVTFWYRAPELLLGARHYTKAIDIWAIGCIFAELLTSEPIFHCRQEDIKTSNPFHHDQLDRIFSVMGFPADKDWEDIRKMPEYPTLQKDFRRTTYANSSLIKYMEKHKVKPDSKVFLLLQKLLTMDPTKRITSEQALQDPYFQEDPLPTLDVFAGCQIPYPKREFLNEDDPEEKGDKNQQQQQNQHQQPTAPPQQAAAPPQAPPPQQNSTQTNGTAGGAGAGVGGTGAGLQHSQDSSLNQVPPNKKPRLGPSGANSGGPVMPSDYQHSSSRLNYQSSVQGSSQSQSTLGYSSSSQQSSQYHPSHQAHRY
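Also: KINOMEscan kinase panel binding assay, signal normalized between DMSO as 100% and a positive control compound as 0%.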

## Cc1cnc2nc1Nc1cccc(c1)COCc1cc(ccc1OCCN1CCCC1)N2 [Compound 1]
PIM1
  remaining binding at 0.1 µM: 100%
MINK
  remaining binding at 0.1 µM: 82%
SGK2
  remaining binding at 0.1 µM: 97%
FGFR2
  remaining binding at 0.1 µM: 79%
ULK2
  remaining binding at 0.1 µM: 83%
RIPK5
  remaining binding at 0.1 µM: 93%
EGFR
  remaining binding at 0.1 µM: 81%
RAF1
  remaining binding at 0.1 µM: 98%
PRKD3
  remaining binding at 0.1 µM: 100%
PRKCH
  remaining binding at 0.1 µM: 91%
EPHA1
  remaining binding at 0.1 µM: 91%
MYO3A
  remaining binding at 0.1 µM: 100%
MRCKA
  remaining binding at 0.1 µM: 99%
MLK2
  remaining binding at 0.1 µM: 98%
ARK5
  remaining binding at 0.1 µM: 51%
MAPKAPK5
  remaining binding at 0.1 µM: 69%
YANK2
  remaining binding at 0.1 µM: 95%
MEK2
  remaining binding at 0.1 µM: 72%
NDR2
  remaining binding at 0.1 µM: 92%
CAMKK2
  remaining binding at 0.1 µM: 96%
CDKL3
  remaining binding at 0.1 µM: 77%
DCAMKL2
  remaining binding at 0.1 µM: 96%
TNIK
  remaining binding at 0.1 µM: 80%
YES
  remaining binding at 0.1 µM: 80%
CDK11
  remaining binding at 0.1 µM: 96%
